Patent US7691858B2, “Kinase inhibitors and methods of use thereof” (TargeGen, Inc., priority 2006, dated 2010)
Where a name gives a salt, the structure may show the parent alone.

Experiments:
VEGF-induced edema = experiment: Miles assay, VEGF as agonist; format: in vivo, Sprague-Dawley rats; conditions: vehicle 12; for Score (scale of 0-12): VEGF 200 ng/site, lower score = greater anti-edema activity; for Score with VEGF as agonist (scale of 0-12): 1.5 mg/kg, VEGF 200 ng/injection site
Protocol: A rodent model of vascular edema, the Miles assay, was used to screen compounds for their ability to inhibit VEGF-induced edema. […] Sprague-Dawley rats were first injected IV with vehicle alone or test agent, followed by IV injection of Evans blue dye, followed by intradermal injections of saline and VEGF (200 ng/injection site) along both shaved flanks.

[1] = target: T1, human p120γ subunit of PI3K (Homo sapiens, UniProt P48736); experiment: PI3K enzymatic activity at two concentrations (Upstate Group); format: biochemical; conditions: 100% = no inhibition, 0% = complete inhibition
T1 construct: purchased Upstate Group, Charlottesville, Va; (contract assay)
T1 sequence (P48736 whole entry): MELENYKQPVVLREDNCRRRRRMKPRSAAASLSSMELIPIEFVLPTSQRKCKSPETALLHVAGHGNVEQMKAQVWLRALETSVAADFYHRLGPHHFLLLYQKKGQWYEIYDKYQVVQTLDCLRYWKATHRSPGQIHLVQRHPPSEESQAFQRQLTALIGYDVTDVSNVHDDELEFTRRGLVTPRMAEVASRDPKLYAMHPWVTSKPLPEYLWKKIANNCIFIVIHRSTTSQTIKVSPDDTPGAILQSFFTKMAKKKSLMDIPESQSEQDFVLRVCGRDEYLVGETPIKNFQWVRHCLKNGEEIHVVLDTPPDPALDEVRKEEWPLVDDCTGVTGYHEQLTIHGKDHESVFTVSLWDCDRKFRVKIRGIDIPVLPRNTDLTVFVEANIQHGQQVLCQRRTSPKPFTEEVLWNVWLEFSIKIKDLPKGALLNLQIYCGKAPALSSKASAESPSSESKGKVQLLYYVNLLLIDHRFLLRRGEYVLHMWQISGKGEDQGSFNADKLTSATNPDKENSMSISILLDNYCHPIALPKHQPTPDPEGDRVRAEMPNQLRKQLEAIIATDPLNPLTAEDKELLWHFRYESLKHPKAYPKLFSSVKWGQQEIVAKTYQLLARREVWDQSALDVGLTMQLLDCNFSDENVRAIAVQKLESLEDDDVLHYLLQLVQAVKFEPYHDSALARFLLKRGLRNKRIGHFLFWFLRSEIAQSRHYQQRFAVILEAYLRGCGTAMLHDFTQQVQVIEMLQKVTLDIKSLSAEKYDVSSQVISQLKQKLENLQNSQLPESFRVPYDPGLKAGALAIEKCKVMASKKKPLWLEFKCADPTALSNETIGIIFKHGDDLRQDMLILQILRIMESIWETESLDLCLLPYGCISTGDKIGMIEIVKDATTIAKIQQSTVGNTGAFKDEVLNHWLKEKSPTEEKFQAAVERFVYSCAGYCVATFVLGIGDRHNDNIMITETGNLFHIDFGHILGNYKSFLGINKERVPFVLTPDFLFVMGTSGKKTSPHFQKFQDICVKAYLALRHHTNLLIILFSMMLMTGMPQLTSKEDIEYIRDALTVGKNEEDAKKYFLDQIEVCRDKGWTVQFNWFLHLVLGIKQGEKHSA
Protocol: The ability of compounds to inhibit the activity of PI3K kinase was determined using biochemical assays. In a first assay, compounds were tested at two concentrations (0.5 and 5 μM) for their ability to inhibit enzymatic activity of the human p120γ subunit of PI3K (the assay being performed under contract by Upstate Group, Charlottesville, Va.).

myocardial infarct = experiment: Rodent model of acute myocardial infarct (LAD occlusion/reperfusion); format: in vivo, Sprague-Dawley rats
Protocol: A rodent model of acute myocardial infarct, in which the proximal left anterior descending coronary artery (LAD) is occluded for 60 min followed by reperfusion, was used to determine whether test agents reduced infarct size at 24 hours.
Myocardial infarcts were created in Sprague-Dawley rats (200-300 g body weight) by a 60 min occlusion of the LAD followed by LAD reperfusion. […] At 24 hr post-treatment, the ischemic zone (area at-risk, AAR) was delineated by re-ligation of the LAD followed by IV injection of alkali blue dye, after which hearts were sectioned along the short axis and stained using triphenyltetrazolium chloride to delineate viable from infarcted myocardium. Photographic images were then analyzed using morphometric software to calculate infarct area as a percent of the at-risk area.
Rodent MI model: All animal studies followed current “NIH Guidelines for the Use of Laboratory Animals” and were performed according to IACUC-approved protocols. Sprague-Dawley rats (275-300 g) were anesthetized using inhaled isoflurane after which chest walls were shaved and swabbed with iodine. Animals were then intubated and maintained on 2% isoflurane (delivered in 30% O2/70% N2), with optimal respiratory rate and stroke volumes set by a volume-controlled safety ventilator (Inspira Advanced Safety Ventilator; Harvard Apparatus, Holliston, Mass.). Body temperatures were maintained at 35-37° C. using heating pads and five-lead electrocardiograms established. For each animal, a left thoracotomy was performed at the third intercostal space, the heart was exposed and a suture snare tightened around the LAD at the point it appeared from beneath the left atrium. Ischemia was confirmed from blanching of the left ventricle (LV) as well as changes in ECG patterns. After the desired period of occlusion (60 min in the standard model), the suture snare was loosened to allow complete reperfusion (but retained in place using shallow sutures) and the chest closed in layers. […].
For infarct size determination, LAD occlusion was repeated on each animal 24 hr after the initial occlusion. The ischemic zone (area-at-risk or AAR) was then delineated by i.v. injection of Evans blue dye (5 ml of a 10% saline solution containing 100 U/ml sodium heparin). The heart was explanted, atria and right ventricle trimmed free, and the LV (septal and free walls) frozen at −20° C. to induce rigor. After thawing on ice, the LV was subdivided into six 2 mm thick sections along the short axis using a metal form to guide dissection. Heart sections were stained for 20 min in 37° C. triphenyltetrazolium chloride (TTC, 2% in 0.04 M K2HPO4/0.17 M sucrose) to delineate viable from infarcted myocardium, fixed for 20 min in 10% formalin, then rinsed in saline. For each section, photographs were taken of both anterior and posterior surfaces and these images analyzed (by personnel blinded as to treatment identity) using a morphometric software package (Image Pro Plus; Media Cybernetics, Silver Spring, Md.). The following areas were calculated, based on their differing pixel densities: non-ischemic zone (Evans blue-stained), viable-but-ischemic zone (free of Evans blue but TTC-stained), and infarct-within-ischemic zone (free of both Evans blue and TTC stain). Area values for anterior and posterior views were averaged, and these values used to calculate the following AAR=Viable-but-ischemic Area+Infarct Area Equation 1 Total LV Area=AAR+Non-ischemic Area Equation 2

cerebral infarct = experiment: Rodent model of cerebral stroke (permanent middle cerebral artery occlusion); format: in vivo, mice; conditions: 1 mg/kg BW IV 60 min after ligation; for % Infarct reduction: vs vehicle; for Infarct area in mm^3 (mean ± SEM): 24 hours
Protocol: A rodent model of cerebral stroke, in which the middle cerebral artery is permanently occluded, was used to determine whether test agents reduced infarct size at 24 hours.
Cerebral strokes were created in mice by permanent ligation of the middle cerebral artery using a cauterizing tool, followed 60 min later by IV injection of either vehicle alone (50% PEG400 in water) or test agents (at 1 mg/kg BW). Twenty four hours later, brains were sectioned and stained using triphenyltetrazolium chloride to delineate viable from infarcted tissue. Photographic images were then analyzed using morphometric software to calculate infarct area.

histamine-induced edema = experiment: Miles assay, histamine as agonist; format: in vivo, Sprague-Dawley rats; conditions: 1.5 mg/kg; histamine 10 μg/injection site; vehicle 12
Protocol: Sprague-Dawley rats were first injected IV with vehicle alone or test agent, followed by IV injection of Evans blue dye, followed by intradermal injections of saline and VEGF (200 ng/injection site) along both shaved flanks. […] The ability of test agents to influence edema induced by agonists other than VEGF was also tested. Compounds cited in this application inhibited edema formation induced using histamine as an agonist, for example, as shown below. The ability of test agent to influence vascular edema was tested as above, except that the ability to block edema was tested using either VEGF or histamine as the agonist (200 ng and 10 μg/injection site, respectively).

[2] = 1.5 mg/kg BW IV at 90 min post-reperfusion, 24 hr
[3] = 1.5 mg/kg BW IV at 90 min post-reperfusion, vs vehicle

Nc1cncc2nc(-c3ccc(O)c(O)c3)c(-c3ccc(O)c(O)c3)nc12 [2,3-(3,4-Dihydroxyphenyl)-pyrido[3,4-b]pyrazin-8-ylamine]
Score (scale of 0-12) (VEGF-induced edema; 0.01 mg/kg IV): 6

Nc1cncc2nc(-c3cccc(O)c3)c(-c3cccc(O)c3)nc12 [3,3′-(8-aminopyrido[3,4-]pyrazine-2,3-diyl)diphenol]
Percent Control Value at 0.5 μM ([1]; 0.5 μM): 101%
Percent Control Value at 5 μM ([1]; 5 μM): 90%

O=C(Nc1cc2ccccc2[nH]1)c1cc(O)c(O)c(O)c1 [3,4,5-Trihydroxy-N-(1H-indol-2-yl)-benzamide]
Score with VEGF as agonist (scale of 0-12) (VEGF-induced edema): 5

O=C(Nc1ccccc1-c1cc2ccccc2[nH]1)c1cc(O)c(O)c(O)c1 [3,4,5-Trihydroxy-N-[2-(1H-indol-2-yl)-phenyl]-benzamide]
Score with VEGF as agonist (scale of 0-12) (VEGF-induced edema): 4

O=C(CCc1ccc(O)cc1)Nc1ccccc1-c1cc2ccccc2[nH]1 [3-(4-Hydroxy-phenyl)-N-[2-(1H-indol-2-yl)-phenyl]-propionamide]
Score (scale of 0-12) (VEGF-induced edema; 1.5 mg/kg IV): 2

Cl.Cl.Nc1nc(N)c2nc(-c3cccc(O)c3)c(-c3cccc(O)c3)nc2n1 [3-[2,4-diamino-6-(3-hydroxyphenyl)pteridin-7-yl] phenol dihydrochloride salt]
Score (scale of 0-12) (VEGF-induced edema; 0.01 mg/kg IV): 3
Score (scale of 0-12) (VEGF-induced edema; 0.1 mg/kg IV): 4
Score (scale of 0-12) (VEGF-induced edema; 1 mg/kg IV): 4
Infarct (% AAR, mean ± SEM) (myocardial infarct; 0.1 mg/kg BW IV at 90 min post-reperfusion, 24 hr): 37.7 ± 5.8 % AAR
% Infarct reduction (myocardial infarct; 0.1 mg/kg BW IV at 90 min post-reperfusion, vs vehicle): 30%
% Infarct reduction (myocardial infarct; 0.1 mg/kg, administration 60 and 240 min post-occlusion): 55%
Infarct (% AAR, mean ± SEM) (myocardial infarct; 0.1 mg/kg, administration 60 and 240 min post-occlusion, vehicle 54.0 ± 2.9): 24.2 ± 4.9 % AAR
% Infarct reduction (myocardial infarct; 0.1 mg/kg, administration 60 min post-occlusion): 60%
Infarct (% AAR, mean ± SEM) (myocardial infarct; 0.1 mg/kg, administration 60 min post-occlusion, vehicle 54.0 ± 2.9): 21.6 ± 5.7 % AAR
% Infarct reduction (myocardial infarct; 0.1 mg/kg, administration 120 min post-occlusion): 65%
Infarct (% AAR, mean ± SEM) (myocardial infarct; 0.1 mg/kg, administration 120 min post-occlusion, vehicle 54.0 ± 2.9): 18.8 ± 5.6 % AAR
% Infarct reduction (myocardial infarct; 0.1 mg/kg, administration 240 min post-occlusion): 65%
Infarct (% AAR, mean ± SEM) (myocardial infarct; 0.1 mg/kg, administration 240 min post-occlusion, vehicle 54.0 ± 2.9): 19.1 ± 4.0 % AAR
Infarct (% AAR, mean ± SEM) (myocardial infarct; 1.0 mg/kg BW IV at 90 min post-reperfusion, 24 hr): 46.4 ± 2.6 % AAR
% Infarct reduction (myocardial infarct; 1.0 mg/kg BW IV at 90 min post-reperfusion, vs vehicle): Not significant

O=C(Nc1ccccc1-c1cc2ccccc2[nH]1)c1cccnc1C(=O)O [3-[2-(1H-Indol-2-yl)-phenylcarbamoyl]-pyridine-2-carboxylic acid]
Score (scale of 0-12) (VEGF-induced edema; 0.5 mg/kg IV): 5

Nc1nc(N)c2nc(-c3ccc(O)cc3)cnc2n1 [4-(2,4-Diamino-pteridin-6-yl)-phenol (sulfate salt)]
Score (scale of 0-12) (VEGF-induced edema; 5 mg/kg IV): 2

Cl.Nc1ncnc2nc(-c3ccc(O)c(O)c3)c(-c3ccc(O)c(O)c3)nc12 [4-[4-amino-6-(3,4-dihydroxyphenyl)pteridin-7-yl]benzene-1,2-diol chloride salt]
Score (scale of 0-12) (VEGF-induced edema; 0.01 mg/kg IV): 6
Score (scale of 0-12) (VEGF-induced edema; 0.1 mg/kg IV): 3
Score (scale of 0-12) (VEGF-induced edema; 1 mg/kg IV): 5

Nc1nc(N)c2nc(CNCc3ccc(O)c(O)c3)cnc2n1 [4-{[(2,4-Diamino-pteridin-6-ylmethyl)-amino]-methyl}-benzene-1,2-diol]
Score (scale of 0-12) (VEGF-induced edema; 5 mg/kg IV): 4

Nc1ncnc2nc(-c3ccccn3)c(-c3ccccn3)nc12 [6,7-Di-pyridin-2-yl-pteridin-4-ylamine]
% Infarct reduction (cerebral infarct): Not significant

Oc1ncnc2nc(-c3ccccc3)c(-c3ccccc3)nc12 [6,7-Diphenyl-pteridin-4-ol]
Score with VEGF as agonist (scale of 0-12) (VEGF-induced edema): 3

Cl.Nc1nc(N)c2nc(-c3ccc(O)c(O)c3)c(-c3ccc(O)c(O)c3)nc2n1 [6,7-bis(3,4-dihydroxyphenyl)-pteridine-2,4,-diamine, hydrochloride salt]
Infarct (% AAR, mean ± SEM) (myocardial infarct; [2]): 36.3 ± 6.3 % AAR
% Infarct reduction (myocardial infarct; [3]): 33%

Nc1ncnc2nc(-c3ccc(O)cc3)c(-c3ccc(O)cc3)nc12.O=S(=O)(O)O [6,7-bis(4-hydroxyphenyl)-pteridin-4-ylamine sulfate salt]
Score with VEGF as agonist (scale of 0-12) (VEGF-induced edema): 4
Infarct area in mm^3 (mean ± SEM) (cerebral infarct): 18.3 ± 2.6 mm^3
% Infarct reduction (cerebral infarct): 53%
Infarct (% AAR, mean ± SEM) (myocardial infarct; [2]): 60.6 ± 1.8 % AAR
% Infarct reduction (myocardial infarct; [3]): 20%
Score with histamine as agonist (scale of 0-12) (histamine-induced edema): 3

Nc1nc(N)c2nc(CNCc3ccccn3)cnc2n1 [6-{[(Pyridin-2-ylmethyl)-amino]-methyl}-pteridine-2,4-diamine]
Score (scale of 0-12) (VEGF-induced edema; 0.1 mg/kg IV): 4

Cc1ccc(-c2nn(C(C)(C)C)c3ncnc(N)c23)cc1 [PP1, reference compound]
Infarct area in mm^3 (mean ± SEM) (cerebral infarct): 35.4 ± 6.4 mm^3
% Infarct reduction (cerebral infarct): Not significant

CN(C)S(=O)(=O)c1ccc2c(c1)/C(=C/c1cc3c([nH]1)CCCC3)C(=O)N2 [SU6656, reference compound]
% Infarct reduction (cerebral infarct): Not significant
